Laboratory results as given in patent publication US20090285774A1, “Hepatitis C Virus Inhibitors” (Bristol-Myers Squibb Company, priority 2008, published 2009).
Read-outs that look alike come from different tables or passages of the source.

Key:
[1] = biological target: T1, HCV NS3/4A protease complex, BMS strain (genotype 1a) (UniProt P27958, species not given/STRAIN_BMS); experiment: FRET peptide assay to monitor HCV NS3/4A proteolytic activity (BMS strain); type: biochemical
T1 construct: DNA encoding the recombinant HCV NS3/4A protease complex (amino acids 1027 to 1711) for these strains [given for H77 and J4L6S only]; These are given only for the H77 and J4L6S constructs
Description: (§1) HCV NS3 protease complexes, derived from the BMS strain, H77 strain or J4L6S strain, were generated, as described below. These purified recombinant proteins were generated for use in a homogeneous assay (see below) to provide an indication of how effective compounds of the present disclosure would be in inhibiting HCV NS3 proteolytic activity.
Serum from an HCV-infected patient was obtained from Dr. T. Wright, San Francisco Hospital. An engineered full-length cDNA (compliment deoxyribonucleic acid) template of the HCV genome (BMS strain) was constructed from DNA fragments obtained by reverse transcription-PCR (RT-PCR) of serum RNA (ribonucleic acid) and using primers selected on the basis of homology between other genotype 1a strains. From the determination of the entire genome sequence, a genotype 1a was assigned to the HCV isolate according to the classification of Simmonds et al. (See P Simmonds, K A Rose, S Graham, S W Chan, F McOmish, B C Dow, E A Follett, P L Yap and H Marsdeni, J. Clin. Microbiol., 31(6):1493-1503 (1993)). […] The infectious clones, H77 (1a genotype) and J4L6S (1b genotype) were obtained from R. Purcell (NIH) and the sequences are published in Genbank (AAB67036, see Yanagi, M., Purcell, R. H., Emerson, S. U. and Bukh, J. Proc. Natl. Acad. Sci. U.S.A. 94(16):8738-8743 (1997); AF054247, see Yanagi, M., St Claire, M., Shapiro, M., Emerson, S. U., Purcell, R. H. and Bukh, J, Virology 244 (1), 161-172. (1998)).
The H77 and J4L6S strains were used for production of recombinant NS3/4A protease complexes. DNA encoding the recombinant HCV NS3/4A protease complex (amino acids 1027 to 1711) for these strains were manipulated as described by P. Gallinari et al. (see Gallinari P, Paolini C, Breruian D, Nardi C, Steinlkuhler C, De Francesco R. Biochemistry. 38(17);5620-32, (1999)). Briefly, a three-lysine solubilizing tail was added at the 3′-end of the NS4A coding region. The cysteine in the P1 position of the NS4A-NS4B cleavage site (amino acid 1711) was changed to a glycine to avoid the proteolytic cleavage of the lysine tag. Furthermore, a cysteine to serine mutation was introduced by PCR at amino acid position 1454 to prevent the autolytic cleavage in the NS3 helicase domain. The variant DNA fragment was cloned in the pET21b bacterial expression vector (Novagen) and the NS3/4A complex was expressed in Escherichia. coli strain BL21 (DE3) (Invitrogen) following the protocol described by P. Gallinari et al. (see Gallinari P, Breinan D, Nardi C, Brunetti M, Tomei L, Steinkuhler C, De Francesco R., J Virol. 72(8):6758-69 (1998)) with modifications. Briefly, the NS3/4A protease complex expression was induced with 0.5 millimolar (mM) Isopropyl β-D-1-thiogalactopyranoside (IPTG) for 22 hours (h) at 20° C. A typical fermentation (1 Liter (L)) yielded approximately 10 grams (g) of wet cell paste. The cells were resuspended in lysis buffer (10 mL/g) consisting of 25 mM N-(2-Hydroxyethyl)Piperazine-N′-(2-Ethane Sulfonic acid) (HEPES), pH 7.5, 20% glycerol, 500 mM Sodium Chloride (NaCl), 0.5% Triton X-100, 1 microgram/milliliter (“μg/mL”) lysozyme, 5 mM Magnesium Chloride (MgCl2), 1 μg/ml DnaseI, 5mM β-Mercaptoethanol (βME), Protease inhibitor-Ethylenediamine Tetraacetic acid (EDTA) free (Roche), homogenized and incubated for 20 minutes (min) at 4° C. The homogenate was sonicated and clarified by ultra-centrifugation at 235000 g for 1 hour (h) at 4° C. Imidazole was added to the supernatant to a final concentration of 15 mM and the pH adjusted to 8.0. The crude protein extract was loaded on a Nickel-Nitrilotriacetic acid (Ni-NTA) column pre-equilibrated with buffer B (25 mM HEPES, pH 8.0, 20% glycerol, 500 mM NaCl, 0.5% Triton X-100, 15 mM imidazole, 5 mM βMB). The sample was loaded at a flow rate of 1 mL/min. The column was washed with 15 column volumes of buffer C (same as buffer B except with 0.2% Triton X-100). The protein was eluted with 5 column volumes of buffer D (same as buffer C except with 200 mM Imidazole). […]

[2] = tested on: HCV replicon (strain 1b) in HUH-7 cells; experiment: HCV replicon FRET assay; type: cell-based; details: Hepatitis C virus
Description: An HCV replicon whole cell system was established as described by Lohmann V, Korner F, Koch J, Herian U, Theilmann L, Bartenschlager R., Science 285(5424):110-3 (1999). This system enabled us to evaluate the effects of our HCV Protease compounds on HCV RNA replication. Briefly, using the HCV strain 1b sequence described in the Lohmann paper (Assession number: AJ238799), an HCV cDNA was synthesized by Operon Technologies, Inc. (Alameda, Calif.), and the full-length replicon was then assembled in plasmid pGem9zf(+) (Promega, Madison, Wis.) using standard molecular biology techniques. The replicon consists of (i) the HCV 5′ UTR fused to the first 12 amino acids of the capsid protein, (ii) the neomycin phosphotransferase gene (neo), (iii) the IRES from encephalomyocarditis virus (EMCV), and (iv) HCV NS3 to NS5B genes and the HCV 3′ UTR. Plasmid DNAs were linearized with ScaI and RNA transcripts were synthesized in vitro using the T7 MegaScript transcription kit (Aibion, Austin, Tex.) according to manufacturer's directions. In vitro transcripts of the cDNA were transfected into the human hepatoma cell line, HUH-7. […] Resulting cell lines were characterized for positive and negative strand RNA production and protein production over time.
The HCV replicon FRET assay was developed to monitor the inhibitory effects of compounds described in the disclosure on NCV viral replication. HUH-7 cells, constitutively expressing the HCV replicon, were grown in Dulbecco's Modified Eagle Media (DMEM) (Gibco-BRL) containing 10% Fetal calf serum (FCS) (Sigma) and 1 mg/ml G418 (Gibco-BRL). Cells were seeded the night before (1.5×10^4 cells/well) in 96-well tissue-culture sterile plates. Compound and no compound controls were prepared in DMEM containing 4% FCS, 1:100 Penicillin/Streptomysin (Gibco-BRL), 1:100 L-glutamine and 5% DMSO in the dilution plate (0.5% DMSO final concentration in the assay). Compound/DMSO mixes were added to the cells and incubated for 4 days at 37° C. After 4 days, cells were first assessed for cytotoxicity using alamar Blue (Trek Diagnotstic Systems) for a CC50 reading. The toxicity of compound (CC50) was determined by adding 1/10th volume of alamar Blue to the media incubating the cells. After 4 h, the fluorescence signal from each well was read, with an excitation wavelength at 530 nm and an emission wavelength of 580 nm, using the Cytofluor Series 4000 (Perspective Biosystems). Plates were then rinsed thoroughly with Phosphate-Buffered Saline (PBS) (3 times 150 μl).

[3] = biological target: T2, HCV NS3/4A protease complex, H77 strain (1a genotype) (Hepatitis C virus genotype 1a, UniProt P27958, C1454S/C1711G); experiment: FRET peptide assay to monitor HCV NS3/4A proteolytic activity (H77 strain); type: biochemical
T2 construct: DNA encoding the recombinant HCV NS3/4A protease complex (amino acids 1027 to 1711) for these strains; inferred from pET21b vector and Ni-NTA purification; made in house; host or cells: Escherichia coli BL21 (DE3), pET21b
Description: as §1
(§2) Serum from an HCV-infected patient was obtained from Dr. T. Wright, San Francisco Hospital. An engineered full-length cDNA (compliment deoxyribonucleic acid) template of the HCV genome (BMS strain) was constructed from DNA fragments obtained by reverse transcription-PCR (RT-PCR) of serum RNA (ribonucleic acid) and using primers selected on the basis of homology between other genotype 1a strains. From the determination of the entire genome sequence, a genotype 1a was assigned to the HCV isolate according to the classification of Simmonds et al. (See P Simmonds, K A Rose, S Graham, S W Chan, F McOmish, B C Dow, E A Follett, P L Yap and H Marsdeni, J. Clin. Microbiol., 31(6):1493-1503 (1993)). […]

[4] = biological target: T3, HCV NS3/4A protease complex, J4L6S strain (1b genotype) (Hepatitis C virus genotype 1b, UniProt O92972, C1454S/C1711G); experiment: FRET peptide assay to monitor HCV NS3/4A proteolytic activity (J4L6S strain); type: biochemical
T3 construct: DNA encoding the recombinant HCV NS3/4A protease complex (amino acids 1027 to 1711) for these strains; inferred from pET21b vector and Ni-NTA purification; made in house; host or cells: Escherichia coli BL21 (DE3), pET21b
Description: as §1, §2

[5] = biological target: T4, human neutrophil elastase (HNE) (Homo sapiens, UniProt P08246); experiment: Specificity assay, human neutrophil elastase; type: biochemical; details: read-out: HLE activity in the specificity assays (IC50)
T4 sequence (P08246 30-267): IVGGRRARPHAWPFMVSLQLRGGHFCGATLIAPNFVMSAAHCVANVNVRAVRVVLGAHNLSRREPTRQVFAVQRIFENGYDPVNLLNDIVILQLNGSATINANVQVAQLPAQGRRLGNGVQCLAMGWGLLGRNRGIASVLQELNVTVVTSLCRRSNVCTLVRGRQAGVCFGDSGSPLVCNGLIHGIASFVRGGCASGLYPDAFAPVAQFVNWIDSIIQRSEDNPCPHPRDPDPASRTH
Procedure: (§3) The specificities of compounds of the present disclosure were determined against a variety of serine proteases: human neutrophil elastase (HNE), porcine pancreatic elastase (PPE) and human pancreatic chymotrypsin and one cysteine protease: human liver cathepsin B. In all cases a 96-well plate format protocol using a fluorometric Amino-Methyl-Coumarin (AMC) substrate specific for each enzyme was used as described previously (PCT Patent Application No. WO 00/09543) with some modifications to the serine protease assays. All enzymes were purchased from Sigma, EMDbiosciences while the substrates were from Bachem, Sigma and EMDbiosciences.
(§4) Compound concentrations varied from 100 to 0.4 μM depending on their potency. The enzyme assays were each initiated by addition of substrate to enzyme-inhibitor pre-incubated for 10 min at room temperature and hydrolysis to 15% conversion as measured on cytofluor. […]
(§5) The percentage of inhibition was calculated using the formula: […]

[6] = biological target: porcine pancreatic elastase (PPE) (Sus scrofa, UniProt P00772); experiment: Specificity assay, porcine pancreatic elastase; type: biochemical; details: read-out: PPE activity in the specificity assays (IC50)
Procedure: as §3, §4, §5

[7] = tested on: human pancreatic chymotrypsin; experiment: Specificity assay, chymotrypsin; type: biochemical; details: read-out: Chymotrypsin activity in the specificity assays (IC50)
Procedure: as §3, §4, §5

human liver cathepsin B = biological target: T5, human liver cathepsin B (Homo sapiens, UniProt P07858); experiment: Specificity assay, cathepsin B; type: biochemical; details: read-out: Cathepsin B activity in the specificity assays (IC50)
T5 construct: host or cells: human liver (from the name)
Procedure: as §3, §4, §5

[8] = NS3/4A BMS strain, value, read-out: IC50 (range or value)
[9] = Huh-7, HCV replicon, value, read-out: EC50 (range or value)
[10] = NS3/4A BMS strain, activity range, read-out: IC50 (range or value)
[11] = Huh-7, HCV replicon, activity range, read-out: EC50 (range or value)

T1 sequence (P27958 1027-1657, stated change not applied, one chain of several): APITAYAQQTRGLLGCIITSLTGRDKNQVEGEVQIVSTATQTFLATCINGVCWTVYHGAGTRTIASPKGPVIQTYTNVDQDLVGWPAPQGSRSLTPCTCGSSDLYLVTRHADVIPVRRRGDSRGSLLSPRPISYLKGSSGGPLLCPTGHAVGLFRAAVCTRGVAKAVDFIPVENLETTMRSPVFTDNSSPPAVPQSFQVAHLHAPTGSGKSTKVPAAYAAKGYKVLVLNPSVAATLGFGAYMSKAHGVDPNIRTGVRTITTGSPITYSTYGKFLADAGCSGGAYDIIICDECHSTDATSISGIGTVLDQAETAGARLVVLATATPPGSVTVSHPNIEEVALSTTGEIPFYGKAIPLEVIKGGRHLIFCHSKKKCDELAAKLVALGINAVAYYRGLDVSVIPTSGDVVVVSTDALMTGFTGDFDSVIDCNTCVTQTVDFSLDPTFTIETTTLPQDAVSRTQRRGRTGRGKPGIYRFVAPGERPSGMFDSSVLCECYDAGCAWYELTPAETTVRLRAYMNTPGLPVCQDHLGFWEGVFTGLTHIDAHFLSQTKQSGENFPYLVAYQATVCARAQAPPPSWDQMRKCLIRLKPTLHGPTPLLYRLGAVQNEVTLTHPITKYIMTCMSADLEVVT
T2 sequence (P27958 1027-1711 C1454S/C1711G, one chain of several): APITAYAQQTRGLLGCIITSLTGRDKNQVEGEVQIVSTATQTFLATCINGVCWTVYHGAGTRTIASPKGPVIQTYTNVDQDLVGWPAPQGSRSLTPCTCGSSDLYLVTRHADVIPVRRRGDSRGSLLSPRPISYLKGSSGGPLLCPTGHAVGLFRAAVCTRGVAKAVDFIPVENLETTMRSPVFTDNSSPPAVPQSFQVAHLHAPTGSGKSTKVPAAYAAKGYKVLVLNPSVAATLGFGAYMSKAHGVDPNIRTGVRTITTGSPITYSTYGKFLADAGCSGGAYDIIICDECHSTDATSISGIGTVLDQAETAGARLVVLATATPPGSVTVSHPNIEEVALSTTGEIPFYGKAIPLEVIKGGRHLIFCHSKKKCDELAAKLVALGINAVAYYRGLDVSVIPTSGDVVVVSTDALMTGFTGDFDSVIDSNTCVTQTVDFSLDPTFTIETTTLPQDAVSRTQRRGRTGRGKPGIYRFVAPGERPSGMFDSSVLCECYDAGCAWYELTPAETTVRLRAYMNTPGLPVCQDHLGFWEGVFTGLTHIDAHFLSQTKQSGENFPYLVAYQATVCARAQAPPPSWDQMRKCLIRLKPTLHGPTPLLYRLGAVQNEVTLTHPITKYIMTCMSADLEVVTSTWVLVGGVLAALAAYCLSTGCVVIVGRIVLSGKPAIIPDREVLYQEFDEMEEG
Sequence of porcine pancreatic elastase (PPE) (P00772 27-266): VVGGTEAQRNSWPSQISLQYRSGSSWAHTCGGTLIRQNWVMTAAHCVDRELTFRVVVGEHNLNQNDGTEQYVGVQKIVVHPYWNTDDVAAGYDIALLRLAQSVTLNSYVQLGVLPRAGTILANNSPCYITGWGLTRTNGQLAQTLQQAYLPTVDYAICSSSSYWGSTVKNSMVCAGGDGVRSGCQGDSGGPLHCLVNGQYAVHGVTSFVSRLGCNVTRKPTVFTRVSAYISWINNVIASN
T3 sequence (O92972 1027-1711 C1454S/C1711G, one chain of several): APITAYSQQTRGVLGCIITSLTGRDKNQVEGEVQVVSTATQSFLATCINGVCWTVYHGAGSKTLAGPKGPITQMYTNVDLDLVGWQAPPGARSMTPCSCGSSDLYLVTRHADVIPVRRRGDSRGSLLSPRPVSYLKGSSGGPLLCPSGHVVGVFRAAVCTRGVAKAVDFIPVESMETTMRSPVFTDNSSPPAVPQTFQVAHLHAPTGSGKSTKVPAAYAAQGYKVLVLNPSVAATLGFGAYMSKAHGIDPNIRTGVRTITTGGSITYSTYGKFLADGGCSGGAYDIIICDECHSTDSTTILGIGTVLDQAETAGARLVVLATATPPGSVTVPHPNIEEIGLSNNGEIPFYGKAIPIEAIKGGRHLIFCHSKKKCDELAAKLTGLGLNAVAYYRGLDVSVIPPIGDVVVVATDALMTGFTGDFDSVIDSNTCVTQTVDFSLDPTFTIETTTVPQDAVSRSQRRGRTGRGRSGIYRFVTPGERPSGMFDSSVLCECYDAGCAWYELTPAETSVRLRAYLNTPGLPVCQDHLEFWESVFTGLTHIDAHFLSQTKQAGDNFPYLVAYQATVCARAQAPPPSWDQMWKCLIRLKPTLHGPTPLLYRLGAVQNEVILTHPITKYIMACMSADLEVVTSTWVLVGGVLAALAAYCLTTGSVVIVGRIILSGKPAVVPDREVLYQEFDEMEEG

| Compound | IC50 [1, 8] | EC50 [2, 9] | IC50 [1, 10] | EC50 [2, 11] | other results |
| --- | --- | --- | --- | --- | --- |
| C=C[C@@H]1C[C@]1(NC(=O)[C@@H]1C[C@@H](Oc2cc(-c3cccs3)cc(-c3ccccc3)n2)CN1C(=O)C(Nc1cc(C)cc(C)n1)C(C)C)C(=O)NS(=O)(=O)C1CC1 (single isomer, unassigned) [Compound 1A] | 14 nM | 65.3 nM |  |  |  |
| C=C[C@@H]1C[C@]1(NC(=O)[C@@H]1C[C@@H](Oc2cc(-c3cccs3)cc(-c3ccccc3)n2)CN1C(=O)C(Nc1cc(C)cc(C)n1)C(C)C)C(=O)NS(=O)(=O)C1CC1 (single isomer, unassigned) [Compound 1B] |  |  | 20 to 200 nM | 100 to 1000 nM |  |
| C=C[C@@H]1C[C@]1(NC(=O)[C@@H]1C[C@@H](OC(=O)N2Cc3cccc(F)c3C2)CN1C(=O)C(Nc1cc(C)cc(C)n1)C(C)C)C(=O)NS(=O)(=O)C1CC1 (single isomer, unassigned) [Compound 2A] |  |  | 4 to 20 nM | 14 to 100 nM | IC50 ([1]; BMS strain, read-out: IC50 against the NS3/4A BMS strain in the enzyme assay): 8.9 nM; IC50 [3]: 1.4 nM; IC50 [4]: 1.2 nM; EC50 ([2]; Huh-7, replicon FRET assay, read-out: EC50 value in the replicon FRET assay): 69 nM; IC50 [5]: 4600 nM; IC50 [6]: > 100000 nM; IC50 [7]: 2100 nM; IC50 (human liver cathepsin B): > 100000 nM |
| C=C[C@@H]1C[C@]1(NC(=O)[C@@H]1C[C@@H](OC(=O)N2Cc3cccc(F)c3C2)CN1C(=O)C(Nc1cc(C)cc(C)n1)C(C)C)C(=O)NS(=O)(=O)C1CC1 (single isomer, unassigned) [Compound 2B] | 135 nM | 3480 nM |  |  |  |
| C=C[C@@H]1C[C@]1(NC(=O)C1CC(Oc2cc(-c3ccccc3)nc3cc(OC)ccc23)CN1C(=O)[C@@H](Nc1nc(CC)cs1)C(C)(C)C)C(=O)NS(=O)(=O)C1CC1 (stereo partly shown) [Compound 3] | 4.55 nM | 14.6 nM |  |  |  |
| C=C[C@@H]1C[C@]1(NC(=O)C1CC(Oc2cc(-c3ccccc3)nc3cc(OC)ccc23)CN1C(=O)[C@@H](Nc1nc(C(C)(C)C)cs1)C(C)(C)C)C(=O)NS(=O)(=O)C1CC1 (stereo partly shown) [Compound 4] |  |  | 4 to 20 nM | 14 to 100 nM |  |
| C=C[C@@H]1C[C@]1(NC(=O)C1CC(Oc2cc(-c3ccccc3)nc3cc(OC)ccc23)CN1C(=O)[C@@H](Nc1nc(C(F)(F)F)cs1)C(C)(C)C)C(=O)NS(=O)(=O)C1CC1 (stereo partly shown) [Compound 5] |  |  | 4 to 20 nM | 14 to 100 nM |  |
